Laboratory results: patent publication US9307767B2, “Herbicidally and insecticidally active thiazolopyridinones” (BAYER INTELLECTUAL PROPERTY GMBH, priority 2012, dated 2016)
Several values for one entry are separate records, joined by “and”; a condition that tells them apart may be missing. Equal values may be shown once.

Legend:
Assay type in all cases: in vivo
wheat [1] = test: Pre-emergence test, damage to crop plants; conditions: application rate 1280 g/ha, after 3 weeks
Source text: (§1) Seeds of monocotyledonous and dicotyledonous weed plants and crop plants are placed in wood-fiber pots in sandy loam and covered with soil. The compounds according to the invention, formulated in the form of wettable powders (WP) or as emulsion concentrates (EC), are then applied as aqueous suspension or emulsion at a water application rate of 600 to 800 l/ha (converted) with the addition of 0.2% of wetting agent to the surface of the covering soil. After the treatment, the pots are placed in a greenhouse and kept under good growth conditions for the test plants. The damage to the test plants is assessed visually after a test period of 3 weeks by comparison with untreated controls (herbicidal activity in percent (%): 100% action=the plants have died, 0% action=like control plants). […] The compounds Nos. I-a-38 and I-a-39 each show, at an application rate of 1280 g/ha, an of at least 80% against Echinochloa crus galli and Veronica persica and at the same time no damage in corn and oilseed rape.

rice [2] = test: Pre-emergence test, damage to crop plants; conditions: application rate 1280 g/ha, after 3 weeks
Source text: as §1

Cyperus serotinus = test: Pre-emergence herbicidal action against weed plants; conditions: application rate 1280 g/ha, visual assessment after 3 weeks
Source text: as §1

Alopecurus myosuroides = test: as above; conditions: application rate 1280 g/ha, visual assessment after 3 weeks
Source text: as §1

corn [3] = test: Pre-emergence test, damage to crop plants; conditions: application rate 1280 g/ha, after 3 weeks
Source text: as §1

oilseed rape [4] = test: Pre-emergence test, damage to crop plants; conditions: application rate 1280 g/ha, after 3 weeks
Source text: as §1

Polygonum convolvulus = test: Pre-emergence herbicidal action against weed plants; conditions: application rate 1280 g/ha, visual assessment after 3 weeks
Source text: as §1

[5] = test system: greenhouse red spider mite (Tetranychus urticae); test: Tetranychus test, OP-resistant (TETRUR spray treatment); conditions: application rate 500 g/ha, bean leaf discs sprayed, after 6 days
Procedure: (§2) • Solvent: 78.0 parts by weight of acetone • 1.5 parts by weight of dimethylformamide • Emulsifier: 0.5 parts by weight of alkylaryl polyglycol ether
To produce a suitable preparation of active compound, 1 part by weight of active compound is mixed with the stated amounts of solvent and emulsifier, and the concentrate is diluted with emulsifier-containing water to the desired concentration. Discs of bean leaves (Phaseolus vulgaris) infested by all stages of the greenhouse red spider mite (Tetranychus urticae) are sprayed with an active compound formulation of the desired concentration. After 6 days, the activity in % is determined. 100% means that all of the spider mites have been killed; 0% means that none of the spider mites have been killed.

[6] = test system: caterpillars of the armyworm (Spodoptera frugiperda); test: Spodoptera frugiperda test (SPODFR spray treatment); conditions: application rate 500 g/ha, corn leaf disks sprayed, after 7 days
Procedure: as §2
To produce a suitable preparation of active compound, 1 part by weight of active compound is mixed with the stated amounts of solvent and emulsifier, and the concentrate is diluted with emulsifier-containing water to the desired concentration. Disks of corn leaves (Zea mays) are sprayed with an active compound preparation of the desired concentration and, after drying, populated with caterpillars of the armyworm (Spodoptera frugiperda). After 7 days, the activity in % is determined. 100% means that all of the caterpillars have been killed; 0% means that none of the caterpillars have been killed. In this test, for example, the following compounds of the Preparation Examples show, at an application rate of 500 g/ha, an activity of 85%: […], I-a-40. In this test, for example, the following compounds of the Preparation Examples show, at an application rate of 500 g/ha, an activity of 100%: I-a-38, I-a-39.

corn [7] = test: Post-emergence test, damage to crop plants; conditions: after about 3 weeks
Procedure: (§3) Seeds of monocotyledonous and dicotyledonous weed and crop plants are placed in sandy loam in wood-fiber pots, covered with soil and cultivated in a greenhouse under good growth conditions. 2 to 3 weeks after sowing, the test plants are treated at the one-leaf stage. The compounds according to the invention, formulated in the form of wettable powders (WP) or as emulsion concentrates (EC), are then sprayed as aqueous suspension or emulsion at a water application rate of 600 to 800 l/ha (converted) with the addition of 0.2% of wetting agent onto the green parts of the plants. After the test plants have been left to stand in the greenhouse under optimal growth conditions for about 3 weeks, the action of the formulations is assessed visually in comparison to untreated controls (herbicidal action in percent (%): 100% activity=the plants have died, 0% activity=like control plants). Here, the compounds Nos. I-a-39 and I-a-42, for example, show, at an application rate of 320 g/ha, an activity of at least 80% against Setaria viridis and at the same time no damage in corn and oilseed rape.

rice [8] = test: Post-emergence test, damage to crop plants; conditions: after about 3 weeks
Procedure: as §3

Lolium multiflorum [9] = test: Post-emergence herbicidal action against weed plants; conditions: application rate 320 g/ha, visual assessment after about 3 weeks
Procedure: as §3

[10] = test system: larvae of the mustard beetle (Phaedon cochleariae); test: Phaedon test (PHAECO spray treatment); conditions: application rate 500 g/ha, Chinese cabbage leaf discs sprayed, after 7 days
Procedure: • Solvent: 78.0 parts by weight of acetone • 1.5 parts by weight of dimethylformamide • Emulsifier: 0.5 part by weight of alkylaryl polyglycol ether
To produce a suitable preparation of active compound, 1 part by weight of active compound is mixed with the stated amounts of solvent and emulsifier, and the concentrate is diluted with emulsifier-containing water to the desired concentration. Discs of Chinese cabbage leaves (Brassica pekinensis) are sprayed with an active compound formulation of the desired concentration and, after drying, populated with larvae of the mustard beetle (Phaedon cochleariae). After 7 days, the activity in % is determined. 100% means that all of the beetle larvae have been killed; 0% means that none of the beetle larvae have been killed. In this test, for example, the following compounds of the Preparation Examples show, at an application rate of 500 g/ha, an activity of 100%: I-a-29, I-a-40.

oilseed rape [11] = test: Post-emergence test, damage to crop plants; conditions: application rate 320 g/ha, after about 3 weeks
Procedure: as §3

Setaria viridis = test: Pre-emergence herbicidal action against weed plants; conditions: application rate 1280 g/ha, visual assessment after 3 weeks
Source text: as §1

Lolium multiflorum [12] = test: as above; conditions: application rate 1280 g/ha, visual assessment after 3 weeks
Source text: as §1

wheat [13] = test: Post-emergence test, damage to crop plants; conditions: application rate 80 g/ha, after about 3 weeks
Procedure: as §3

## Cn1c(=O)c(-c2c(F)ccc(-c3ccc(Cl)cc3Cl)c2Cl)c(O)c2scnc21 [I-a-19]
Wheat [1]
  damage in wheat: no damage
Rice [2]
  damage in rice: no damage
Cyperus serotinus
  herbicidal activity against Cyperus serotinus: at least 80%
Alopecurus myosuroides
  herbicidal activity against Alopecurus myosuroides: at least 80%

## O=c1c(-c2ccc(-c3ccc(Cl)cc3)cc2Cl)c(OCC(F)F)c2scnc2n1CC(F)F [I-a-32]
Corn [3]
  damage in corn: no damage
Oilseed rape [4]
  damage in oilseed rape: no damage
Polygonum convolvulus
  herbicidal activity against Polygonum convolvulus: at least 80%

## C#CCn1c(=O)c(-c2cc(-c3ccc(Cl)cc3)ccc2Cl)c(O)c2scnc21 [I-a-37]
[5]
  activity in % (spider mites killed): 85% and 90%

## Cc1ccc(-c2ccc(Cl)cc2)cc1-c1c(O)c2scnc2n(C)c1=O [I-a-38]
[5]
  activity in % (spider mites killed): 85%
[6]
  activity in % (caterpillars killed): 85% and 100%
Corn [3]
  damage in corn: no damage
Oilseed rape [4]
  damage in oilseed rape: no damage
Corn [7]; application rate 320 g/ha
  damage in corn: no damage
Rice [8]; application rate 320 g/ha
  damage in rice: no damage
Lolium multiflorum [9]
  herbicidal activity against Lolium multiflorum: at least 80%

## C#CCn1c(=O)c(-c2c(Cl)cc(-c3ccc(Cl)cc3)cc2CC)c(O)c2scnc21 [I-a-29]
[10]
  activity in % (beetle larvae killed): 100%

## Cc1ccc(-c2ccc(Cl)cc2)cc1-c1c(O)c2scnc2n(CC(F)F)c1=O [I-a-39]
[5]
  activity in % (spider mites killed): 85% and 90%
[6]
  activity in % (caterpillars killed): 85% and 100%
Corn [3]
  damage in corn: no damage
Oilseed rape [4]
  damage in oilseed rape: no damage
Corn [7]; application rate 320 g/ha
  damage in corn: no damage
Oilseed rape [11]
  damage in oilseed rape: no damage

## 6-(4′-chloro-4-methylbiphenyl-3-yl)-5-oxo-4-(prop-2-yn-1-yl)-4,5-dihydro[1,3]thiazolo[4,5]pyridin-7-yl 2-methylpropanoate [I-a-42]
Wheat [1]
  damage in wheat: no damage
Setaria viridis
  herbicidal activity against Setaria viridis: at least 80%
Lolium multiflorum [12]
  herbicidal activity against Lolium multiflorum: at least 80%
Corn [7]; application rate 80 g/ha
  damage in corn: no damage
Corn [7]; application rate 320 g/ha
  damage in corn: no damage
Oilseed rape [11]
  damage in oilseed rape: no damage
Wheat [13]
  damage in wheat: no damage
Rice [8]; application rate 80 g/ha
  damage in rice: no damage

## C#CCn1c(=O)c(-c2cc(-c3ccc(Cl)cc3)ccc2C)c(O)c2scnc21 [I-a-40, 6-(4′-chloro-4-methylbiphenyl-3-yl)-7-hydroxy-4-(prop-2-yn-1-yl)[1,3]thiazolo[4,5-b]pyridin-5(4H)-one]
[6]
  activity in % (caterpillars killed): 85%
[10]
  activity in % (beetle larvae killed): 100%
